ChEMBL document CHEMBL4376839, “Structure-Based Optimization of Coumarin hA3 Adenosine Receptor Antagonists” (J Med Chem, 2020)

Assays:
Adenosine receptor A1 = biological target: T1, Adenosine receptor A1 (Homo sapiens, UniProt P30542); assay: Displacement of [3H]CCPA from human adenosine receptor A1 expressed in CHO cell membranes by radioligand competition assay
T1 sequence (P30542 whole entry): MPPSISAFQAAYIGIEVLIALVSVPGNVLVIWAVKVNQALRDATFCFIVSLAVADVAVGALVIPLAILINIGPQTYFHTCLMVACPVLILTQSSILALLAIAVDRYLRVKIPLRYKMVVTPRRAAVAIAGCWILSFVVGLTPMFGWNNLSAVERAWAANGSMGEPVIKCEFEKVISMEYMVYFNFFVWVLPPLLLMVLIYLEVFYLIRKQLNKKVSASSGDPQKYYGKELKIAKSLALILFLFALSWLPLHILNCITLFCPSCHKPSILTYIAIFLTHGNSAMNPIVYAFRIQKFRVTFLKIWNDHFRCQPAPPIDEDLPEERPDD

Adenosine receptor A3 [1] = biological target: T2, Adenosine receptor A3 (Homo sapiens, UniProt P0DMS8); assay: Displacement of [3H]HEMADO from human adenosine receptor A3 expressed in CHO cell membranes by radioligand competition assay
T2 sequence (P0DMS8 whole entry): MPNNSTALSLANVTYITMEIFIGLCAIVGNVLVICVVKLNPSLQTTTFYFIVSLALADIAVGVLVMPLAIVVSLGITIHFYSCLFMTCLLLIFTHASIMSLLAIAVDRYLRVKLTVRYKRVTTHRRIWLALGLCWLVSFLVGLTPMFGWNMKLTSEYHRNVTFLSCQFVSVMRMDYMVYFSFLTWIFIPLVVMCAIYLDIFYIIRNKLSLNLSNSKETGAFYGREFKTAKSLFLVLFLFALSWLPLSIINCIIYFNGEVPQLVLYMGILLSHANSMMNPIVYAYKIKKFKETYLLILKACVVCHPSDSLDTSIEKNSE

Adenosine receptor A2a = Adenosine receptor A2a (Homo sapiens, UniProt P29274); assay: Displacement of [3H]NECA from human adenosine receptor A2A expressed in CHO cell membranes by radioligand competition assay
Chain of Adenosine receptor A2a (P29274 whole entry): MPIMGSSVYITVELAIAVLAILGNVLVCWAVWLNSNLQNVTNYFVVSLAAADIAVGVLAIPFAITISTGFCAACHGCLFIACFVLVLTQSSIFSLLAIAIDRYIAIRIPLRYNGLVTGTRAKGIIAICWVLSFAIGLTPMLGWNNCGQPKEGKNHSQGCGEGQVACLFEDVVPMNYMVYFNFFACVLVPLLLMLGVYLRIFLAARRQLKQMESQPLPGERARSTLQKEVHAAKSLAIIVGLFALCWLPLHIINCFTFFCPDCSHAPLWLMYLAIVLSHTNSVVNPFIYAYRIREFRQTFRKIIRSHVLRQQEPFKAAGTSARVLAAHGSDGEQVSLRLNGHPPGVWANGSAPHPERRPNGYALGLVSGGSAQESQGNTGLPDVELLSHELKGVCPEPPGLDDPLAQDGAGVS

Adenosine receptor A2b [2] = biological target: T3, Adenosine receptor A2b (Homo sapiens, UniProt P29275); assay: Antagonist activity at human adenosine receptor A2B expressed in CHO cells assessed as inhibition of NECA-stimulated adenylyl cyclase activity
T3 sequence (P29275 whole entry): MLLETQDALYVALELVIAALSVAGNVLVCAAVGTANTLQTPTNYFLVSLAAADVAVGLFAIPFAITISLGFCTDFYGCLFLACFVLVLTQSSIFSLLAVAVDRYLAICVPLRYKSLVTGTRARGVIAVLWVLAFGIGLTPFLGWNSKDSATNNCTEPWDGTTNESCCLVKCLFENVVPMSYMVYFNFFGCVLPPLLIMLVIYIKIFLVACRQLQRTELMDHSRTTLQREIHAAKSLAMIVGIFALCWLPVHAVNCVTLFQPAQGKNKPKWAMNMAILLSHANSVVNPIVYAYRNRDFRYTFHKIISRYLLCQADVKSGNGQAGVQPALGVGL

Adenosine receptor A2b [3] = biological target: T3, Adenosine receptor A2b; assay: as above; remark: listed apart in the source
Adenosine receptor A3 [4] = biological target: T2, Adenosine receptor A3; assay: Antagonist activity at human adenosine receptor A3 expressed in CHO cells assessed as suppression of NECA-induced decrease of cAMP accumulation by Glo-sensor cAMP assay; format: functional, cell-based

| SMILES | Ki (Adenosine receptor A1) | Ki (Adenosine receptor A3 [1]) | Ki (Adenosine receptor A2a) | Ki (Adenosine receptor A2b [2]) | IC50 (Adenosine receptor A2b [3]) | IC50 (Adenosine receptor A3 [4]) |
| --- | --- | --- | --- | --- | --- | --- |
| CC(=O)Oc1ccc(-c2cc3cccc(OC(C)=O)c3oc2=O)cc1OC(C)=O | > 100 µM | 22 µM | 64.4 µM | > 30 µM | > 30 µM |  |
| O=c1oc2c(O)cccc2cc1-c1ccc(O)c(O)c1 | 6.2 µM | 23.6 µM | 14 µM | > 30 µM | > 30 µM |  |
| Cc1cccc2cc(-c3ccc([N+](=O)[O-])cc3)c(=O)oc12 | > 100 µM | > 100 µM | > 100 µM | > 30 µM | > 30 µM |  |
| CC(=O)Oc1cccc2cc(-c3ccccc3)c(=O)oc12 | 6.93 µM | 6.86 µM | 35.7 µM | > 30 µM | > 30 µM |  |
| O=c1oc2c(O)c(O)ccc2cc1-c1ccc(O)c(O)c1 | 6.28 µM | 8.5 µM | 25.5 µM | > 30 µM | > 30 µM |  |
| CC(=O)COc1cccc2cc(-c3ccccc3)c(=O)oc12 | 10.4 µM | 7.06 µM | 16.1 µM | > 30 µM |  |  |
| COc1ccc(-c2cc3cccc(C)c3oc2=O)cc1OC | > 100 µM | 13.6 µM | 25.9 µM | > 30 µM | > 30 µM |  |
| CCOc1cccc2cc(-c3ccc(OC)cc3)c(=O)oc12 | > 100 µM | 5.32 µM | > 100 µM | > 30 µM | > 30 µM | 29.5 µM |
| COc1ccc(-c2cc3cccc(OC)c3oc2=O)cc1 | > 100 µM | 5.06 µM | > 100 µM | > 30 µM | > 30 µM | 25.3 µM |
| O=c1oc2c(O)c(O)ccc2cc1-c1ccccc1 | 2.4 µM | 3.85 µM | 12.1 µM | > 30 µM | > 30 µM |  |
| CC(=O)COc1cccc2cc(-c3ccc(C)cc3)c(=O)oc12 | > 100 µM | 0.634 µM | > 100 µM | > 30 µM |  |  |
| COc1cc(-c2cc3cccc(C)c3oc2=O)cc(OC)c1OC | > 60 µM | 9.82 µM | 32.9 µM | > 30 µM | > 30 µM |  |
| CC(=O)Oc1ccc(-c2cc3ccc(OC(C)=O)c(OC(C)=O)c3oc2=O)cc1 | > 100 µM | 6.14 µM | > 100 µM | > 30 µM | > 30 µM |  |
| CCOc1cccc2cc(-c3ccc([N+](=O)[O-])cc3)c(=O)oc12 | > 100 µM | > 100 µM | > 100 µM | > 30 µM | > 30 µM |  |
| CC(=O)COc1cccc2cc(-c3ccc(Br)cc3)c(=O)oc12 | > 100 µM | > 30 µM | > 100 µM | > 30 µM |  |  |
| CCOc1cccc2cc(-c3ccc(Br)cc3)c(=O)oc12 | > 100 µM | > 100 µM | > 100 µM | > 30 µM | > 30 µM |  |
| Cc1cccc2cc(-c3cc(O)c(O)c(O)c3)c(=O)oc12 | 14.7 µM | 14.3 µM | > 100 µM | > 30 µM | > 30 µM |  |
| CCOc1cccc2cc(-c3ccccc3)c(=O)oc12 | 22.1 µM | 22.5 µM | 55 µM | > 30 µM | > 30 µM |  |
| Cc1cccc2cc(-c3ccccc3)c(=O)oc12 | 14.8 µM | 17 µM | 42.1 µM | > 30 µM | > 30 µM |  |
| Cc1ccc(-c2cc3cccc(C)c3oc2=O)cc1 | > 100 µM | 16.6 µM | > 100 µM | > 30 µM | > 30 µM |  |
| CC(=O)Oc1ccc2cc(-c3ccccc3)c(=O)oc2c1OC(C)=O | 8.56 µM | 5.17 µM | 21.1 µM | > 30 µM | > 30 µM |  |
| O=c1oc2c(O)cccc2cc1-c1ccc(Br)cc1 | > 100 µM |  | > 100 µM | > 30 µM | > 30 µM |  |
| O=c1oc2c(O)c(O)ccc2cc1-c1ccc(O)cc1 | 12.5 µM | 9.16 µM | 55.3 µM | > 30 µM | > 30 µM |  |
| O=c1oc2c(O)cccc2cc1-c1ccccc1 | 4.62 µM | 5.09 µM | 42.3 µM | > 30 µM | > 30 µM |  |
| CCOc1cccc2cc(-c3cc(OC)c(OC)c(OC)c3)c(=O)oc12 | > 100 µM | 9.05 µM | > 100 µM | > 30 µM | > 30 µM |  |
| CCOc1cccc2cc(-c3ccc(OC)cc3OC)c(=O)oc12 | > 100 µM | 16.6 µM | > 100 µM | > 30 µM | > 30 µM |  |
| CC(=O)Oc1ccc(-c2cc3ccc(OC(C)=O)c(OC(C)=O)c3oc2=O)cc1OC(C)=O | > 100 µM | 23.4 µM | > 100 µM | > 30 µM | > 30 µM |  |
| CCOc1cccc2cc(-c3ccc(OC)c(OC)c3)c(=O)oc12 | > 100 µM | 13.7 µM | > 100 µM | > 30 µM | > 30 µM |  |
| CCOc1cccc2cc(-c3ccc(C)cc3)c(=O)oc12 | > 100 µM | 3.93 µM | > 60 µM | > 30 µM | > 30 µM | 18.4 µM |
| COc1cccc2cc(-c3ccc([N+](=O)[O-])cc3)c(=O)oc12 | > 100 µM | 8.02 µM | 59.1 µM | > 30 µM | > 30 µM |  |
